Results from patent US20240358842A1, “PROTEIN STABILIZING COMPOUNDS CONTAINING USP7 LIGANDS” (Stablix, Inc., priority 2021, published 2024).

Each compound was assayed against USP7 (Homo sapiens, UniProt Q93009) (assay: Ub-Rho cleavage assay). Settings: Ub-Rho substrate, recombinant USP7; read-out: Ub (Rho) USP7.1 (IC50).
Assay type: biochemical
Method: All fluorescence measurements were performed on a Molecular Devices FlexStation3 with excitation at 480 nm and emission 540 nm, PMT Gain: Medium, Flash Number: 10. […] Assay buffer for all measurements was 50 mM HEPES, 100 mM NaCl, 0.5 mM EDTA, 1 mM TCEP, 0.1 mg/ml BSA, 0.01% Tween-20, pH 7.8. […] Serial dilutions were made with a Mosquito HTS (SPT Labtech) nanoliter liquid handler. 200 nL of each compound in duplicate or DMSO control were transferred to the assay plate. The first two columns served as positive controls. 9.8 μl per well of USP7 working solution was added to the assay plate. Compound+Protein was incubated for 25 min at 25° C. 10 uL of Ub-Rho substrate was added per well and incubated for an additional 15 min at 25° C. Fluorescence was then measured. Percent response relative to DMSO controls was calculated in GraphPad or Scinamic, and the data was fitted to a non-linear regression to determine IC50 values.

USP7, sequence (Q93009 whole entry): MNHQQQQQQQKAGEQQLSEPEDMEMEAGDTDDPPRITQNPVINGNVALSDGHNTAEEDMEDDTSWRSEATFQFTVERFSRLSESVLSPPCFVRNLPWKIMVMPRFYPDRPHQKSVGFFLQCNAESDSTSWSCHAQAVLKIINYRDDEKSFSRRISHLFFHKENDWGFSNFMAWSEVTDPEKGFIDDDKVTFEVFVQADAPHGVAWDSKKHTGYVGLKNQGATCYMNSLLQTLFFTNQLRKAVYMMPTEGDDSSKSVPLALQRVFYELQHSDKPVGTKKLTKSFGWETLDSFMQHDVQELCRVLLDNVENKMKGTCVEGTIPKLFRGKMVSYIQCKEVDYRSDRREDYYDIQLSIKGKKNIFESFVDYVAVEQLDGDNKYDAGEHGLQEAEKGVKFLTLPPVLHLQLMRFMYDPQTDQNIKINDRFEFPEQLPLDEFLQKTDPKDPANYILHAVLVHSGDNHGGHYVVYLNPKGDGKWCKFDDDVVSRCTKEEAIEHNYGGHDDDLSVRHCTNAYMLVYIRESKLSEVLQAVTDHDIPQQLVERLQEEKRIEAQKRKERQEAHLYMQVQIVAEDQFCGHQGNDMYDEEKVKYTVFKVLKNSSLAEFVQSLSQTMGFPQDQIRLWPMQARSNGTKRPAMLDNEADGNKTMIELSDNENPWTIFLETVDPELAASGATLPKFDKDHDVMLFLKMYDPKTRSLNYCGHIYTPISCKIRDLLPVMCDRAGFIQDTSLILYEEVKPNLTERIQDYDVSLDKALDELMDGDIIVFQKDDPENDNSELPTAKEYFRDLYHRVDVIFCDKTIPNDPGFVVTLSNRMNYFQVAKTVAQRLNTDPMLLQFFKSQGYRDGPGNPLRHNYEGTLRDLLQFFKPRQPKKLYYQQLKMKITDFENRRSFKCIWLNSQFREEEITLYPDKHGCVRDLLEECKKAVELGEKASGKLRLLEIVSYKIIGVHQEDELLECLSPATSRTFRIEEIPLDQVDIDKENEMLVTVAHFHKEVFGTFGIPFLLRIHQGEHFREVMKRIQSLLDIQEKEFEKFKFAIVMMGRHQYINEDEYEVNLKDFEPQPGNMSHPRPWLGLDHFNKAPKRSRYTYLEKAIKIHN

IC50 [µM]	SMILES
> 100	CN1CCC(C(=O)Nc2nc3cc(NS(=O)(=O)c4cccs4)ccc3s2)CC1 [U88]
> 100	CN1CCC(C(=O)Nc2nc3ccc(NS(=O)(=O)N4CC(F)C4)cc3s2)CC1 [U89]
> 100	CN1CCC(NC(=O)c2nc3ccc(NS(=O)(=O)c4cccs4)cc3s2)CC1 [U92]
> 100	CN1CCC(C(=O)Nc2nc3ccc(NS(=O)(=O)c4cnccn4)cc3s2)CC1 [U93]
> 100	CN1CCC(C(=O)Nc2nc3ccc(NS(=O)(=O)c4cnc(Cl)s4)cc3s2)CC1 [U95]
> 100	CC(=O)N1CCCn2nc(C(=O)Nc3nc4ccc(NS(=O)(=O)c5cccs5)cc4s3)cc2C1 [U96]
> 100	CN1CCn2cnc(C(=O)Nc3nc4ccc(NS(=O)(=O)c5cccs5)cc4s3)c2C1 [U97]
1 to 100	O=C(Nc1nc2ccc(NS(=O)(=O)c3cccs3)cc2s1)c1cc2n(n1)CCCN(C1CC1)C2 [U98]
> 100	CN1CCn2cc(C(=O)Nc3nc4ccc(NS(=O)(=O)c5cccs5)cc4s3)nc2C1 [U99]
> 100	CN(C)Cc1cc(C(=O)Nc2nc3ccc(NS(=O)(=O)c4cccs4)cc3s2)nn1C [U101]
> 100	Cn1nc(C(=O)Nc2nc3ccc(NS(=O)(=O)c4cccs4)cc3s2)cc1CN1CCC(CO)CC1 [U105]
> 100	Cn1ccc(C(=O)Nc2nc3ccc(NS(=O)(=O)c4cccs4)cc3s2)n1 [U107]
> 100	NC1CCn2nc(C(=O)Nc3nc4ccc(NS(=O)(=O)c5cccs5)cc4s3)cc2C1 (stereo not drawn) [U112]
> 100	CN1CC2CN(C(=O)Nc3nc4ccc(NS(=O)(=O)c5cccs5)cc4s3)CC2C1 (stereo not drawn) [U117]

The remaining lines, values behind:

SMILES	IC50 [µM]
Cc1nocc1S(=O)(=O)Nc1ccc2nc(NC(=O)C3CCN(C)CC3)sc2c1 [U90]	> 100
CN1CCC(C(=O)Nc2nc3ccc(NS(=O)(=O)c4cn5c(n4)CCC5)cc3s2)CC1 [U91]	> 100
NCCN(c1ccc2nc(NC(=O)c3ccco3)sc2c1)S(=O)(=O)c1cccs1 [U94]	> 100
NCc1cc(Nc2nc3ccc(NS(=O)(=O)c4cn5c(n4)CCC5)cc3s2)ncn1 [U100]	> 100
CN1CCCn2nc(C(=O)Nc3nc4ccc(NS(=O)(=O)c5cn6c(n5)CCC6)cc4s3)cc2C1 [U102]	> 100
CN1CCCn2nc(C(=O)Nc3nc4ccc(NS(=O)(=O)c5cccnc5)cc4s3)cc2C1 [U103]	> 100
CN1CCCn2nc(C(=O)Nc3nc4ccc(NS(=O)(=O)c5ccccn5)cc4s3)cc2C1 [U104]	> 100
CN1CCCn2nc(C(=O)Nc3nc4ccc(NS(=O)(=O)c5cnccn5)cc4s3)cc2C1 [U106]	> 100
CN1CCCn2nc(C(=O)Nc3nc4ccc(N(CCN)S(=O)(=O)c5cccs5)cc4s3)cc2C1 [U108]	> 100
CN1CCCn2nc(C(=O)Nc3nc4ccc(NS(=O)(=O)c5ccncc5)cc4s3)cc2C1 [U109]	> 100
CN1CCCn2nc(C(=O)Nc3nc4ccc(NS(=O)(=O)c5cn6ccccc6n5)cc4s3)cc2C1 [U110]	> 100
CN1CCCn2nc(C(=O)Nc3nc4ccc(N(C)S(=O)(=O)c5cccs5)cc4s3)cc2C1 [U111]	> 100
CN1CCCn2nc(C(=O)Nc3nc4ccc(N[S+]([O-])c5cccs5)cc4s3)cc2C1 (stereo not drawn) [U113]	> 100
CN1CCCn2nc(C(=O)Nc3nc4ccc(NCc5c[nH]cn5)cc4s3)cc2C1 [U114]	> 100
CN1CCCn2nc(C(=O)Nc3nc4ccc(N(CC5CCNC5)S(=O)(=O)c5cccs5)cc4s3)cc2C1 (stereo not drawn) [U115]	> 100
CN1CCCn2nc(C(=O)Nc3nc4ccc(NS(=O)(=O)c5nnc[nH]5)cc4s3)cc2C1 [U116]	> 100

What follows are compounds tested against T1, USP7 CD + UBL 1-5 (Homo sapiens, UniProt Q93009) (assay: Surface plasmon resonance assay (SPR)). Settings: steady-state KD; read-out: SPR USP7 CD + UBL 1-5 (KD_ss).
T1 construct: USP7 CD +
T1 sequence (Q93009 208-1102 limits assumed): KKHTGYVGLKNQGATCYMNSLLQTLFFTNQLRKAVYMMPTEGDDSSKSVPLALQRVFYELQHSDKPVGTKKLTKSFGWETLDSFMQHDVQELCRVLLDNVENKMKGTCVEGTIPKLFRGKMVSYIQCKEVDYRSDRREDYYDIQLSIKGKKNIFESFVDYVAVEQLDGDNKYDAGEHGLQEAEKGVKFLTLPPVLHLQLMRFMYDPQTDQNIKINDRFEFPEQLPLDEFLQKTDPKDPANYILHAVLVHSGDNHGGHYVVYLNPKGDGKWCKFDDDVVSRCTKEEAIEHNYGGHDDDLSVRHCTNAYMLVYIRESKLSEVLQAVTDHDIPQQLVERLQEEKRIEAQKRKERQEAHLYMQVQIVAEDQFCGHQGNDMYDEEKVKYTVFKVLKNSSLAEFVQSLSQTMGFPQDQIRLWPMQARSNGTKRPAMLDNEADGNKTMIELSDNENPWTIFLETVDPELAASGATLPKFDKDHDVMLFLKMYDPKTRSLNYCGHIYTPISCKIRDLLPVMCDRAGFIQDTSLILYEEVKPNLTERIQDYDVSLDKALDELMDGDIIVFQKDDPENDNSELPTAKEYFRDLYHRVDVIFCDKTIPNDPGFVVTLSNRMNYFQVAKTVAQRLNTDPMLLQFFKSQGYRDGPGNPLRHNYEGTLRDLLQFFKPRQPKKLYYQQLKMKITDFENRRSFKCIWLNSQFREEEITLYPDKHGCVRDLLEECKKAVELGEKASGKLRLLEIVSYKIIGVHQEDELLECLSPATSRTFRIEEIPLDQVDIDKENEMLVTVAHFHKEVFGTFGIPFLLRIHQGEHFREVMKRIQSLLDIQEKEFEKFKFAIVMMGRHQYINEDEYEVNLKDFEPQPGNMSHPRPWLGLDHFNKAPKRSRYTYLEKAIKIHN
Assay type: binding
Method: The surface plasmon resonance experiments were performed using a Cytiva (formerly GE Healthcare) Biacore 8K equipped with a Series S Sensor Chip SA. The ligands were immobilized via a biotin-modified biotin acceptor peptide. USP7 Ligands were diluted in running buffer (HBS-P+2% DMSO; 10 mM HEPES, pH 7.4, 150 mM NaCl, 1 mM DTT, 0.05% P20, 2% DMSO) to 100 μg/mL and injected at […] until a density between 500-10,000 RU was reached on flow-cell two of each channel, and flow cell one was left blank to serve as a reference surface. Both surfaces were washed until a stable baseline was achieved then 30 startup cycles to condition the surface. To collect kinetic and steady-state binding data, the small molecule analytes were prepared in three-fold dilution series in HBS-P+2% DMSO running buffer. Analytes were injected over both flow cells at a flow rate of […] at 25° C. The complex was allowed to associate for 60 seconds and dissociate for 300 seconds. Data were collected at 10 Hz. The data were fit to a simple 1:1 interaction model global data analysis within Cytiva Biacore Insight Evaluation Software.

Kd [µM]	SMILES
> 100	CN1CCC(C(=O)Nc2nc3cc(NS(=O)(=O)c4cccs4)ccc3s2)CC1 [U88]
> 100	CN1CCC(C(=O)Nc2nc3ccc(NS(=O)(=O)N4CC(F)C4)cc3s2)CC1 [U89]
> 100	CN1CCC(NC(=O)c2nc3ccc(NS(=O)(=O)c4cccs4)cc3s2)CC1 [U92]
1 to 100	CN1CCC(C(=O)Nc2nc3ccc(NS(=O)(=O)c4cnccn4)cc3s2)CC1 [U93]
> 100	CN1CCC(C(=O)Nc2nc3ccc(NS(=O)(=O)c4cnc(Cl)s4)cc3s2)CC1 [U95]
1 to 100	CC(=O)N1CCCn2nc(C(=O)Nc3nc4ccc(NS(=O)(=O)c5cccs5)cc4s3)cc2C1 [U96]
1 to 100	CN1CCn2cnc(C(=O)Nc3nc4ccc(NS(=O)(=O)c5cccs5)cc4s3)c2C1 [U97]
1 to 100	O=C(Nc1nc2ccc(NS(=O)(=O)c3cccs3)cc2s1)c1cc2n(n1)CCCN(C1CC1)C2 [U98]
1 to 100	CN1CCn2cc(C(=O)Nc3nc4ccc(NS(=O)(=O)c5cccs5)cc4s3)nc2C1 [U99]
1 to 100	CN(C)Cc1cc(C(=O)Nc2nc3ccc(NS(=O)(=O)c4cccs4)cc3s2)nn1C [U101]
1 to 100	Cn1nc(C(=O)Nc2nc3ccc(NS(=O)(=O)c4cccs4)cc3s2)cc1CN1CCC(CO)CC1 [U105]
1 to 100	Cn1ccc(C(=O)Nc2nc3ccc(NS(=O)(=O)c4cccs4)cc3s2)n1 [U107]
1 to 100	NC1CCn2nc(C(=O)Nc3nc4ccc(NS(=O)(=O)c5cccs5)cc4s3)cc2C1 (stereo not drawn) [U112]
1 to 100	CN1CC2CN(C(=O)Nc3nc4ccc(NS(=O)(=O)c5cccs5)cc4s3)CC2C1 (stereo not drawn) [U117]

Further lines, the compound ahead of its results:

SMILES	Kd [µM]
Cc1nocc1S(=O)(=O)Nc1ccc2nc(NC(=O)C3CCN(C)CC3)sc2c1 [U90]	1 to 100
CN1CCC(C(=O)Nc2nc3ccc(NS(=O)(=O)c4cn5c(n4)CCC5)cc3s2)CC1 [U91]	1 to 100
NCCN(c1ccc2nc(NC(=O)c3ccco3)sc2c1)S(=O)(=O)c1cccs1 [U94]	1 to 100
NCc1cc(Nc2nc3ccc(NS(=O)(=O)c4cn5c(n4)CCC5)cc3s2)ncn1 [U100]	1 to 100
CN1CCCn2nc(C(=O)Nc3nc4ccc(NS(=O)(=O)c5cn6c(n5)CCC6)cc4s3)cc2C1 [U102]	1 to 100
CN1CCCn2nc(C(=O)Nc3nc4ccc(NS(=O)(=O)c5cccnc5)cc4s3)cc2C1 [U103]	1 to 100
CN1CCCn2nc(C(=O)Nc3nc4ccc(NS(=O)(=O)c5ccccn5)cc4s3)cc2C1 [U104]	1 to 100
CN1CCCn2nc(C(=O)Nc3nc4ccc(NS(=O)(=O)c5cnccn5)cc4s3)cc2C1 [U106]	> 100
CN1CCCn2nc(C(=O)Nc3nc4ccc(N(CCN)S(=O)(=O)c5cccs5)cc4s3)cc2C1 [U108]	> 100
CN1CCCn2nc(C(=O)Nc3nc4ccc(NS(=O)(=O)c5ccncc5)cc4s3)cc2C1 [U109]	> 100
CN1CCCn2nc(C(=O)Nc3nc4ccc(NS(=O)(=O)c5cn6ccccc6n5)cc4s3)cc2C1 [U110]	1 to 100
CN1CCCn2nc(C(=O)Nc3nc4ccc(N(C)S(=O)(=O)c5cccs5)cc4s3)cc2C1 [U111]	> 100
CN1CCCn2nc(C(=O)Nc3nc4ccc(N[S+]([O-])c5cccs5)cc4s3)cc2C1 (stereo not drawn) [U113]	1 to 100
CN1CCCn2nc(C(=O)Nc3nc4ccc(NCc5c[nH]cn5)cc4s3)cc2C1 [U114]	> 100
CN1CCCn2nc(C(=O)Nc3nc4ccc(N(CC5CCNC5)S(=O)(=O)c5cccs5)cc4s3)cc2C1 (stereo not drawn) [U115]	1 to 100
CN1CCCn2nc(C(=O)Nc3nc4ccc(NS(=O)(=O)c5nnc[nH]5)cc4s3)cc2C1 [U116]	1 to 100
